Results: ChEMBL document CHEMBL1139078, “ortho-Substituted azoles as selective and dual inhibitors of VEGF receptors 1 and 2” (Bioorg Med Chem Lett, 2007)

Molecular target: Vascular endothelial growth factor receptor 1 (Homo sapiens, UniProt P17948)
Test: Inhibition of VEGFR1 by HTRF assay

Vascular endothelial growth factor receptor 1, sequence (P17948 whole entry, looked up): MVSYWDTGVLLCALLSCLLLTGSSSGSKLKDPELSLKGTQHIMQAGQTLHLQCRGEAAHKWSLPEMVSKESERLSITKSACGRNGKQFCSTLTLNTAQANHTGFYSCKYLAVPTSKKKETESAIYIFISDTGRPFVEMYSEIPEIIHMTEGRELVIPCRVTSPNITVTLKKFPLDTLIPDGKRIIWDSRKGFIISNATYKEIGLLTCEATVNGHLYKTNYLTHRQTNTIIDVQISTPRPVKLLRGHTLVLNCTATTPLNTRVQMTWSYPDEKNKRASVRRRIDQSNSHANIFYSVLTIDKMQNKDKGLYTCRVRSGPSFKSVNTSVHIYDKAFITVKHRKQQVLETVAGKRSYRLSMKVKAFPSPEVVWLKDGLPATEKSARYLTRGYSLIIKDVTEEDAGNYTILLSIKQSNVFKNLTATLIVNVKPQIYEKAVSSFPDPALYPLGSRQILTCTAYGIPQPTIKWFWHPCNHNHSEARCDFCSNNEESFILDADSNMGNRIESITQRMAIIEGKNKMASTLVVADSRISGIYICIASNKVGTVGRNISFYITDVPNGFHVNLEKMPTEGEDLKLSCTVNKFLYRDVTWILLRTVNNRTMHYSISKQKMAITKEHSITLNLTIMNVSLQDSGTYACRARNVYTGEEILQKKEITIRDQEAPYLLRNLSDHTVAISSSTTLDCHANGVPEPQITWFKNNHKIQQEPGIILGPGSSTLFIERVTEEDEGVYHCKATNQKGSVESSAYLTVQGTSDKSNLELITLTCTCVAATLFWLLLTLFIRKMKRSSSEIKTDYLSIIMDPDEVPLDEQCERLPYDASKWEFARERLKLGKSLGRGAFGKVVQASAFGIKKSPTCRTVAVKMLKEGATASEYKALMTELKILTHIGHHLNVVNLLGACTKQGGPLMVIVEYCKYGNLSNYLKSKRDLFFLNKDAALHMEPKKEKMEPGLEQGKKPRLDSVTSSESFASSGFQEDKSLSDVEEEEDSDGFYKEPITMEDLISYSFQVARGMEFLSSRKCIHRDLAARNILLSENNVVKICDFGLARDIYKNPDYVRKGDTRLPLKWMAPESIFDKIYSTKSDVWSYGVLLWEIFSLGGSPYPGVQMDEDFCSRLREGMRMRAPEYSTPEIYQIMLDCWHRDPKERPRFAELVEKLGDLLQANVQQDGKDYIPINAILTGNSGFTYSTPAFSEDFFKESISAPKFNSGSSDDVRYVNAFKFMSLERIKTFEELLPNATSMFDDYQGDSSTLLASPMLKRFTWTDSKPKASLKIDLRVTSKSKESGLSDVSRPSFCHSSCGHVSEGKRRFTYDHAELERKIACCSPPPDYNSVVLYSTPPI

Q: `Cn1ncc(NCc2ccncc2)c1C(=O)Nc1ccc(Cl)c(C(F)(F)F)c1` was tested. Which IC50 did it give?
A: 1360 nM

Q: With `Cc1noc(NCc2ccncc2)c1C(=O)Nc1ccc(C(F)(F)F)cc1` as the molecule, how does the IC50 read?
A: 560 nM

Q: For `CC(C)c1ccc(NC(=O)c2c(NCc3ccncc3)cnn2C)cc1`, which IC50 is on record?
A: 440 nM

Q: With `Cn1ncc(NCc2ccncc2)c1C(=O)Nc1cccc(C(F)(F)F)c1` as the molecule, how does the IC50 read?
A: 1060 nM

Q: For `Cn1cnc(NCc2ccncc2)c1C(=O)Nc1ccc(Oc2ccccc2)cc1`, which IC50 is on record?
A: > 10000 nM

Q: `Cc1noc(NCc2ccncc2)c1C(=O)Nc1ccc(C(F)(F)F)c(C(F)(F)F)c1` was tested. Which IC50 did it give?
A: > 10000 nM

Q: For `Cn1ncc(NCc2cccnc2)c1C(=O)Nc1ccc(C(F)(F)F)cc1`, which IC50 is on record?
A: > 10000 nM

Q: Which IC50 does the source give for `Cn1cnc(NCc2ccncc2)c1C(=O)Nc1cccc(C(F)(F)F)c1` here?
A: 790 nM

Q: How did the IC50 turn out when `COc1ccc(NC(=O)c2c(C)noc2NCc2ccncc2)cc1OC` was run?
A: 3350 nM

Q: How did the IC50 turn out when `Cc1noc(NCc2ccncc2)c1C(=O)Nc1ccc(C(C)(C)C)cc1` was run?
A: 420 nM

Q: How did the IC50 turn out when `Cc1noc(NCc2ccncc2)c1C(=O)Nc1ccc(Cc2ccccc2)cc1` was run?
A: > 10000 nM

Q: `Cn1ncc(NCc2ccncc2)c1C(=O)Nc1cccc(Cl)c1` was tested. Which IC50 did it give?
A: 3220 nM

Q: How did the IC50 turn out when `Cn1cnc(NCc2ccncc2)c1C(=O)Nc1ccc(OC(F)(F)F)cc1` was run?
A: 1430 nM

Q: With `Cc1noc(NCc2ccncc2)c1C(=O)Nc1ccc(OC(F)(F)F)cc1` as the molecule, how does the IC50 read?
A: 3550 nM

Q: For `Cc1cc(NC(=O)c2c(C)noc2NCc2ccncc2)ccc1C(F)(F)F`, which IC50 is on record?
A: 1440 nM

Q: `Cn1ncc(NCc2ccncc2)c1C(=O)Nc1ccc(C(F)(F)F)c(C(F)(F)F)c1` was tested. Which IC50 did it give?
A: 920 nM

Q: For `Cc1noc(NCc2ccncc2)c1C(=O)Nc1ccc(C(C)C)cc1`, which IC50 is on record?
A: 760 nM

Q: Which IC50 does the source give for `Cn1cnc(NCc2ccncc2)c1C(=O)Nc1ccc2c(c1)CN=N2` here?
A: > 10000 nM

Q: With `Cc1noc(NCc2ccncc2)c1C(=O)Nc1ccc(Cl)cc1` as the molecule, how does the IC50 read?
A: > 10000 nM

Q: With `Cn1ncc(NCc2ccncc2)c1C(=O)Nc1ccc(Cc2ccccc2)cc1` as the molecule, how does the IC50 read?
A: > 10000 nM

Q: For `Cn1ncc(NCc2ccncc2)c1C(=O)Nc1ccc(Cl)cc1`, which IC50 is on record?
A: > 10000 nM

Q: `Cn1cnc(NCc2cccnc2)c1C(=O)Nc1ccc(C(F)(F)F)cc1` was tested. Which IC50 did it give?
A: > 10000 nM

Q: Which IC50 does the source give for `Cn1ncc(NCc2ccncc2)c1C(=O)Nc1cccc(OC(F)(F)F)c1` here?
A: 2440 nM

Q: For `Cn1ncc(NCc2ccncc2)c1C(=O)Nc1cc(C(F)(F)F)cc(C(F)(F)F)c1`, which IC50 is on record?
A: 1230 nM

Q: With `Cc1noc(NCc2ccncc2)c1C(=O)Nc1cccc(Cl)c1` as the molecule, how does the IC50 read?
A: > 10000 nM

Q: For `Cn1cnc(NCc2ccncc2)c1C(=O)Nc1ccc(-c2ccccc2)cc1`, which IC50 is on record?
A: > 10000 nM

Q: Which IC50 does the source give for `Cc1noc(NCc2ccncc2)c1C(=O)Nc1ccc(Cl)c(Cl)c1` here?
A: 1250 nM

Q: `Cn1cnc(NCc2ccncc2)c1C(=O)NCc1ccc2c(c1)OCO2` was tested. Which IC50 did it give?
A: 1120 nM

Q: Which IC50 does the source give for `Cn1ncc(NCc2cccnc2)c1C(=O)Nc1cccc(C(F)(F)F)c1` here?
A: > 10000 nM

Molecular target: T1, Vascular endothelial growth factor receptor 2 (Homo sapiens, UniProt P35968)
T1 sequence (P35968 whole entry): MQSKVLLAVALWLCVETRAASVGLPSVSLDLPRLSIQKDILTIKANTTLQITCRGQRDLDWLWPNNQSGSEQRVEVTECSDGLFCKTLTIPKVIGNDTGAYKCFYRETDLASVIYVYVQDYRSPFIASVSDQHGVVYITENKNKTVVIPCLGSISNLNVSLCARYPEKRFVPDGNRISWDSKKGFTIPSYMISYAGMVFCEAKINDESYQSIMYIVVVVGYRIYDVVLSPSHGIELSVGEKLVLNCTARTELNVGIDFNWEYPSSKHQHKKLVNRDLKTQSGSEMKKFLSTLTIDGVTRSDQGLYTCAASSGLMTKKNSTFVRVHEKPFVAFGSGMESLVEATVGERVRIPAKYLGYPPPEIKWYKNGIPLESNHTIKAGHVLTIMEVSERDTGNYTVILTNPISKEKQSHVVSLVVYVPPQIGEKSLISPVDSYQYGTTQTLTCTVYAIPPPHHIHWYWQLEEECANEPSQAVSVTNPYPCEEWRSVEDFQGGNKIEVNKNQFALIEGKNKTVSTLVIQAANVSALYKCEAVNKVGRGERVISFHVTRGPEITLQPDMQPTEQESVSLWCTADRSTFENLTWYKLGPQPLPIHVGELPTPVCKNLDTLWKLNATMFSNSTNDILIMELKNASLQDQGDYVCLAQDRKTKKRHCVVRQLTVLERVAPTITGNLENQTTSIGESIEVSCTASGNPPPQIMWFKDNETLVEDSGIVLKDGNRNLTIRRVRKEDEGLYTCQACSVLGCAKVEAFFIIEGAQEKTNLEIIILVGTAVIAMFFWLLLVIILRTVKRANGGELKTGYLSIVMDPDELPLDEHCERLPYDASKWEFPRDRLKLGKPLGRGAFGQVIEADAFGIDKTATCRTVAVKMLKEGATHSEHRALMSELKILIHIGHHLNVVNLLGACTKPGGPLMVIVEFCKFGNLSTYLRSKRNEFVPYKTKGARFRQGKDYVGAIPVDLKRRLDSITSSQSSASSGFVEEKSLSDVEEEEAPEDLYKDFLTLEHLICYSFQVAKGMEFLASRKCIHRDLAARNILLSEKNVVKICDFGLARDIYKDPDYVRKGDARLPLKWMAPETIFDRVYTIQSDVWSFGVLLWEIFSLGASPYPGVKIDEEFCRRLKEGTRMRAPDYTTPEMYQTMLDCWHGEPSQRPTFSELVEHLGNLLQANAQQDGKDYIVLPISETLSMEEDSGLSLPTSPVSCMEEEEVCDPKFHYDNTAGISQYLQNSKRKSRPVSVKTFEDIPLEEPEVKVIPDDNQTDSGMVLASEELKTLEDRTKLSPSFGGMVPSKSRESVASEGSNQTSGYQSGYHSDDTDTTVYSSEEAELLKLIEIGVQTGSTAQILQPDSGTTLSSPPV
Test: Inhibition of VEGFR2 by cell-based assay
Type: functional

Q: How did the IC50 turn out when `Cn1ncc(NCc2ccncc2)c1C(=O)Nc1ccc(Cl)c(C(F)(F)F)c1` was run?
A: 110 nM

Q: With `Cc1noc(NCc2ccncc2)c1C(=O)Nc1ccc(C(F)(F)F)cc1` as the molecule, how does the IC50 read?
A: 180 nM

Q: How did the IC50 turn out when `CC(C)c1ccc(NC(=O)c2c(NCc3ccncc3)cnn2C)cc1` was run?
A: 88 nM

Q: With `Cn1ncc(NCc2ccncc2)c1C(=O)Nc1cccc(C(F)(F)F)c1` as the molecule, how does the IC50 read?
A: 1340 nM

Q: For `Cn1cnc(NCc2ccncc2)c1C(=O)Nc1ccc(Oc2ccccc2)cc1`, which IC50 is on record?
A: > 10000 nM

Q: How did the IC50 turn out when `Cc1noc(NCc2ccncc2)c1C(=O)Nc1ccc(C(F)(F)F)c(C(F)(F)F)c1` was run?
A: > 10000 nM

Q: With `Cn1ncc(NCc2cccnc2)c1C(=O)Nc1ccc(C(F)(F)F)cc1` as the molecule, how does the IC50 read?
A: > 10000 nM

Q: For `Cn1cnc(NCc2ccncc2)c1C(=O)Nc1cccc(C(F)(F)F)c1`, which IC50 is on record?
A: 550 nM

Q: With `COc1ccc(NC(=O)c2c(C)noc2NCc2ccncc2)cc1OC` as the molecule, how does the IC50 read?
A: > 10000 nM

Q: Which IC50 does the source give for `Cc1noc(NCc2ccncc2)c1C(=O)Nc1ccc(C(C)(C)C)cc1` here?
A: 210 nM

Q: Which IC50 does the source give for `Cc1noc(NCc2ccncc2)c1C(=O)Nc1ccc(Cc2ccccc2)cc1` here?
A: > 10000 nM

Q: With `Cn1ncc(NCc2ccncc2)c1C(=O)Nc1cccc(Cl)c1` as the molecule, how does the IC50 read?
A: > 10000 nM

Q: `Cn1cnc(NCc2ccncc2)c1C(=O)Nc1ccc(OC(F)(F)F)cc1` was tested. Which IC50 did it give?
A: 110 nM

Q: With `Cc1noc(NCc2ccncc2)c1C(=O)Nc1ccc(OC(F)(F)F)cc1` as the molecule, how does the IC50 read?
A: 910 nM

Q: For `Cc1cc(NC(=O)c2c(C)noc2NCc2ccncc2)ccc1C(F)(F)F`, which IC50 is on record?
A: 590 nM

Q: `Cn1ncc(NCc2ccncc2)c1C(=O)Nc1ccc(C(F)(F)F)c(C(F)(F)F)c1` was tested. Which IC50 did it give?
A: 130 nM

Q: `Cc1noc(NCc2ccncc2)c1C(=O)Nc1ccc(C(C)C)cc1` was tested. Which IC50 did it give?
A: 350 nM

Q: For `Cn1cnc(NCc2ccncc2)c1C(=O)Nc1ccc2c(c1)CN=N2`, which IC50 is on record?
A: > 10000 nM

Q: For `Cc1noc(NCc2ccncc2)c1C(=O)Nc1ccc(Cl)cc1`, which IC50 is on record?
A: > 10000 nM

Q: Which IC50 does the source give for `Cn1ncc(NCc2ccncc2)c1C(=O)Nc1ccc(Cc2ccccc2)cc1` here?
A: > 10000 nM

Q: For `Cn1ncc(NCc2ccncc2)c1C(=O)Nc1ccc(Cl)cc1`, which IC50 is on record?
A: 1000 nM

Q: For `Cn1cnc(NCc2cccnc2)c1C(=O)Nc1ccc(C(F)(F)F)cc1`, which IC50 is on record?
A: > 10000 nM

Q: For `Cn1ncc(NCc2ccncc2)c1C(=O)Nc1cccc(OC(F)(F)F)c1`, which IC50 is on record?
A: 470 nM

Q: Which IC50 does the source give for `Cn1ncc(NCc2ccncc2)c1C(=O)Nc1cc(C(F)(F)F)cc(C(F)(F)F)c1` here?
A: 210 nM

Q: How did the IC50 turn out when `Cc1noc(NCc2ccncc2)c1C(=O)Nc1cccc(Cl)c1` was run?
A: > 10000 nM

Q: `Cn1cnc(NCc2ccncc2)c1C(=O)Nc1ccc(-c2ccccc2)cc1` was tested. Which IC50 did it give?
A: > 10000 nM

Q: `Cc1noc(NCc2ccncc2)c1C(=O)Nc1ccc(Cl)c(Cl)c1` was tested. Which IC50 did it give?
A: 930 nM

Q: For `Cn1cnc(NCc2ccncc2)c1C(=O)NCc1ccc2c(c1)OCO2`, which IC50 is on record?
A: 740 nM

Q: `Cn1ncc(NCc2cccnc2)c1C(=O)Nc1cccc(C(F)(F)F)c1` was tested. Which IC50 did it give?
A: > 10000 nM

Molecular target: T1, Vascular endothelial growth factor receptor 2
Test: Inhibition of VEGFR2 by HTRF assay

Q: How did the IC50 turn out when `Cn1ncc(NCc2ccncc2)c1C(=O)Nc1ccc(Cl)c(C(F)(F)F)c1` was run?
A: 1130 nM

Q: How did the IC50 turn out when `Cc1noc(NCc2ccncc2)c1C(=O)Nc1ccc(C(F)(F)F)cc1` was run?
A: 370 nM

Q: For `CC(C)c1ccc(NC(=O)c2c(NCc3ccncc3)cnn2C)cc1`, which IC50 is on record?
A: 290 nM

Q: `Cn1ncc(NCc2ccncc2)c1C(=O)Nc1cccc(C(F)(F)F)c1` was tested. Which IC50 did it give?
A: 750 nM

Q: How did the IC50 turn out when `Cn1cnc(NCc2ccncc2)c1C(=O)Nc1ccc(Oc2ccccc2)cc1` was run?
A: 4290 nM

Q: Which IC50 does the source give for `Cc1noc(NCc2ccncc2)c1C(=O)Nc1ccc(C(F)(F)F)c(C(F)(F)F)c1` here?
A: 4230 nM

Q: How did the IC50 turn out when `Cn1ncc(NCc2cccnc2)c1C(=O)Nc1ccc(C(F)(F)F)cc1` was run?
A: > 10000 nM

Q: Which IC50 does the source give for `Cn1cnc(NCc2ccncc2)c1C(=O)Nc1cccc(C(F)(F)F)c1` here?
A: 650 nM

Q: With `COc1ccc(NC(=O)c2c(C)noc2NCc2ccncc2)cc1OC` as the molecule, how does the IC50 read?
A: 1190 nM

Q: `Cc1noc(NCc2ccncc2)c1C(=O)Nc1ccc(C(C)(C)C)cc1` was tested. Which IC50 did it give?
A: 280 nM

Q: With `Cc1noc(NCc2ccncc2)c1C(=O)Nc1ccc(Cc2ccccc2)cc1` as the molecule, how does the IC50 read?
A: 5800 nM

Q: How did the IC50 turn out when `Cn1ncc(NCc2ccncc2)c1C(=O)Nc1cccc(Cl)c1` was run?
A: 2060 nM

Q: With `Cn1cnc(NCc2ccncc2)c1C(=O)Nc1ccc(OC(F)(F)F)cc1` as the molecule, how does the IC50 read?
A: 1150 nM

Q: `Cc1noc(NCc2ccncc2)c1C(=O)Nc1ccc(OC(F)(F)F)cc1` was tested. Which IC50 did it give?
A: 2120 nM

Q: `Cc1cc(NC(=O)c2c(C)noc2NCc2ccncc2)ccc1C(F)(F)F` was tested. Which IC50 did it give?
A: 870 nM

Q: `Cn1ncc(NCc2ccncc2)c1C(=O)Nc1ccc(C(F)(F)F)c(C(F)(F)F)c1` was tested. Which IC50 did it give?
A: 840 nM

Q: How did the IC50 turn out when `Cc1noc(NCc2ccncc2)c1C(=O)Nc1ccc(C(C)C)cc1` was run?
A: 440 nM

Q: With `Cn1cnc(NCc2ccncc2)c1C(=O)Nc1ccc2c(c1)CN=N2` as the molecule, how does the IC50 read?
A: 6020 nM

Q: How did the IC50 turn out when `Cc1noc(NCc2ccncc2)c1C(=O)Nc1ccc(Cl)cc1` was run?
A: > 10000 nM

Q: With `Cn1ncc(NCc2ccncc2)c1C(=O)Nc1ccc(Cc2ccccc2)cc1` as the molecule, how does the IC50 read?
A: 5570 nM

Q: How did the IC50 turn out when `Cn1ncc(NCc2ccncc2)c1C(=O)Nc1ccc(Cl)cc1` was run?
A: 4580 nM

Q: Which IC50 does the source give for `Cn1cnc(NCc2cccnc2)c1C(=O)Nc1ccc(C(F)(F)F)cc1` here?
A: > 10000 nM

Q: `Cn1ncc(NCc2ccncc2)c1C(=O)Nc1cccc(OC(F)(F)F)c1` was tested. Which IC50 did it give?
A: 2060 nM

Q: How did the IC50 turn out when `Cn1ncc(NCc2ccncc2)c1C(=O)Nc1cc(C(F)(F)F)cc(C(F)(F)F)c1` was run?
A: 1120 nM

Q: For `Cc1noc(NCc2ccncc2)c1C(=O)Nc1cccc(Cl)c1`, which IC50 is on record?
A: > 10000 nM

Q: How did the IC50 turn out when `Cn1cnc(NCc2ccncc2)c1C(=O)Nc1ccc(-c2ccccc2)cc1` was run?
A: 3770 nM

Q: With `Cc1noc(NCc2ccncc2)c1C(=O)Nc1ccc(Cl)c(Cl)c1` as the molecule, how does the IC50 read?
A: 970 nM

Q: Which IC50 does the source give for `Cn1cnc(NCc2ccncc2)c1C(=O)NCc1ccc2c(c1)OCO2` here?
A: 650 nM

Q: How did the IC50 turn out when `Cn1ncc(NCc2cccnc2)c1C(=O)Nc1cccc(C(F)(F)F)c1` was run?
A: > 10000 nM
